From US8859541B2, “6-alkynylpyridines” (Boehringer Ingelheim International GmbH, priority 2012, dated 2014) come the findings set out here.

pIC50: −log10 of the molar value.

The target of this test is T1, XIAP BIR3 (Homo sapiens, UniProt P98170).
T1 construct: covering amino acids 241 to 356; XIAP BIR3; made in house; host or cells: E. coli
T1 sequence (P98170 241-356): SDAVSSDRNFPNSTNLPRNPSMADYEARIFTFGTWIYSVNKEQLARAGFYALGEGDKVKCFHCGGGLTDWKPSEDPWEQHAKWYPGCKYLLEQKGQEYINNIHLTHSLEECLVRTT
In words: XIAP BIR3 binding assay (DELFIA), displacement of SMAC peptide. The note with it: GST-fusion BIR3 domain (aa 241 to 356) 10 nM, SMAC peptide 10 nM; activity of the (S)-isomers. The method, then: Biological Methods XIAP BIR3 and cIAP1 BIR3 Binding Assays (DELFIA)
Peptide […]-Lys(Biotin), representing the N-terminus of mature human SMAC (SMAC peptide), was used as interaction partner in the protein-peptide interaction assay.
BIR3 domains (10 nM) were incubated with SMAC peptide (10 nM) in Assay Buffer (50 mM Tris, 120 mM NaCl, 0.1% BSA, 1 mM DTT, 0.05% TritonX100) for one hour at room temperature in the presence of inhibitiory compounds. The assay mixture was transferred to a strepatvidin coated plate and incubated for one hour at room temperature to allow binding of the biotinylated peptide and associated BIR3 domains to the plate. After several washing steps Eu labeled anti-GST antibody (e.g. Perkin Elmer DELFIA Eu-N1-antiGST AD0250) was added to detect BIR3 domain-SMAC peptide interactions according to Perkin Elmer's instructions. […] Time resolved Europium fluoresecence was measured in a Wallac Victor using Standard assay settings.
DELFIA assay results were plotted against compound concentrations and Software GraphPad Prizm was used to calculate half maximal inhibitory concentrations (IC50 values).
`CNC(C)C(=O)Nc1ccc(-c2cncnc2C(C)C)c(C#Cc2ccc3ccccc3c2)n1` (stereo not shown) [Example 159, 2-(methylamino)-N-[6-(2-naphthalen-2-ylethynyl)-5-(4-propan-2-ylpyrimidin-5-yl)-pyridin-2-yl]propanamide] gave a pIC50 of 6.12.

`CNC(C)C(=O)Nc1ccc(-c2c(Cl)cncc2Cl)c(C#Cc2ccc3ncccc3c2)n1` (stereo not shown) [Example 56, N-[5-(3,5-dichloropyridin-4-yl)-6-(2-quinolin-6-ylethynyl)-pyridin-2-yl]-2-(methylamino)-propanamide] had a pIC50 of 5.54.

Regarding `CNC(C)C(=O)Nc1ccc(-c2cc(C#N)ccc2Cl)c(C#Cc2ccccc2)n1` (stereo not shown) [Example 117, N-[5-(2-chloro-5-cyanophenyl)-6-(2-phenylethynyl)pyridin-2-yl]-2-(methylamino)propanamide], the negative logarithm of the IC50 (pIC50) is 6.39.

The compound `CC(N)C(=O)Nc1cccc(C#Cc2ccco2)n1` (stereo not shown) [Example 241, 2-amino-N-[6-[2-(furan-2-yl)ethynyl]pyridin-2-yl]propanamide] had a pIC50 of 5.49.

Consider `CNC(C)C(=O)Nc1ccc(-c2cnccc2C#N)c(C#Cc2cc(F)cc(F)c2)n1` (stereo not shown) [Example 160, N-[5-(4-cyanopyridin-3-yl)-6-[2-(3,5-difluorophenyl)ethynyl]-pyridin-2-yl]-2-(methylamino)-propanamide], for which the pIC50 was 6.32.

Take `CNC(C)C(=O)Nc1ccc(Cc2ccccc2)c(C#Cc2ccccc2)n1` (stereo not shown) [Example 119, N-[5-benzyl-6-(2-phenylethynyl)pyridin-2-yl]-2-(methylamino)-propan-amide]: the pIC50 was 6.49.

With `CNC(C)C(=O)Nc1ccc(-c2cccc(F)c2F)c(C#Cc2ccccc2)n1` (stereo not shown) [Example 139, N-[5-(2,3-difluorophenyl)-6-(2-phenylethynyl)pyridin-2-yl]-2-(methylamino)propanamide], the pIC50 was 5.85.

For the compound `CNC(C)C(=O)Nc1ccc(-c2cncc3ccccc23)c(C#Cc2ccc3occc3c2)n1` (stereo not shown) [Example 16, N-[6-[2-(1-benzofuran-5-yl)-ethynyl]-5-isoquinolin-4-ylpyridin-2-yl]-2-(methyl-amino)propanamide], the pIC50 is 6.26.

`CCNC(CC)C(=O)Nc1ccc(-c2cncnc2)c(C#Cc2ccc3ncccc3c2)n1` (stereo not shown) [Example 170, 2-(ethylamino)-N-[5-pyrimidin-5-yl-6-(2-quinolin-6-ylethynyl)pyridin-2-yl]-butanamide] had a negative-log IC50 (pIC50) of 5.86.

Consider `CC(N)C(=O)Nc1ccc(-c2c(Cl)cccc2Cl)c(C#Cc2ccccc2)n1` (stereo not shown) [Example 103, 2-amino-N-[5-(2,6-dichlorophenyl)-6-(2-phenyl-ethynyl)pyridin-2-yl]propanamide], for which the pIC50 is 5.52.

Consider `CC(N)C(=O)Nc1ccc(C2CCCC2)c(C#Cc2ccccc2)n1` (stereo not shown) [Example 166, 2-amino-N-[5-cyclopentyl-6-(2-phenylethynyl)pyridin-2-yl]-propan-amide], for which the pIC50 is 6.05.

Turning to `CNC(C)C(=O)Nc1ccc(-c2cncnc2)c(C#Cc2ccc3c(c2)OCCO3)n1` (stereo not shown) [Example 14, N-[6-[2-(2,3-dihydro-1,4-benzodioxin-6-yl)ethynyl]-5-pyrimidin-5-ylpyridin-2-yl]-2-(methylamino)propanamide], the pIC50 is 6.38.

The compound `CNC(C)C(=O)Nc1ccc(-c2c(-c3ccccc3)noc2C)c(C#Cc2ccc3ccccc3c2)n1` (stereo not shown) [Example 156, 2-(methylamino)-N-[5-(5-methyl-3-phenyl-1,2-oxazol-4-yl)-6-(2-naphthalen-2-ylethynyl)pyridin-2-yl]propanamide] gave a pIC50 of 5.50.

As for `CNC(C)C(=O)Nc1ccc(N(C)S(=O)(=O)c2ccccc2)c(C#Cc2ccccc2)n1` (stereo not shown) [Example 243, N-[5-[benzenesulfonyl(methyl)amino]-6-(2-phenylethynyl)pyridin-2-yl]-2-(methylamino)propanamide], the pIC50 was 6.80.

In turn, `CNC(C)C(=O)Nc1ccc(-c2cncnc2)c(C#Cc2ccc3oc4ccccc4c3c2)n1` (stereo not shown) [Example 20, N-[6-(2-dibenzofuran-2-yl-ethynyl)-5-pyrimidin-5-ylpyridin-2-yl]-2-(methyl-amino)propanamide] showed a pIC50 of 5.37.

As to `CC(N)C(=O)Nc1cccc(C#Cc2ccsc2)n1` (stereo not shown) [Example 216, 2-amino-N-[6-(2-thiophen-3-ylethynyl)pyridin-2-yl]propanamide], the pIC50 is 5.67.

With `CNC(C)C(=O)Nc1ccc(-c2c(C)nc3ccccn23)c(C#Cc2ccc3c(Cl)nccc3c2)n1` (stereo not shown) [Example 43, N-[6-[2-(1-chloroisoquinolin-6-yl)ethynyl]-5-(2-methyl-imidazo[1,2-a]pyridin-3-yl)-pyridin-2-yl]-2-(methylamino)-propanamide], the pIC50 was 6.51.

`CC(N)C(=O)Nc1cccc(C#Cc2ccccc2Cl)n1` (stereo not shown) [Example 222, 2-amino-N-[6-[2-(2-chlorophenyl)ethynyl]pyridin-2-yl]propanamide] gave a pIC50 of 5.85.

With `CC(N)C(=O)Nc1ccc(-c2cncc(F)c2)c(C#Cc2ccccc2)n1` (stereo not shown) [Example 106, 2-amino-N-[5-(5-fluoropyridin-3-yl)-6-(2-phenylethynyl)pyridin-2-yl]propanamide], the pIC50 was 6.61.

For `CNC(C)C(=O)Nc1ccc(-c2cncnc2)c(C#Cc2ccc3ccncc3c2)n1` (stereo not shown) [Example 18, N-[6-(2-isoquinolin-7-yl-ethynyl)-5-pyrimidin-5-ylpyridin-2-yl]-2-(methyl-amino)propanamide], the pIC50 was 6.13.

Compound `CNC(C)C(=O)Nc1ccc(-c2c(C)nn(C)c2C)c(C#Cc2ccc3cnccc3c2)n1` (stereo not shown) [Example 164, N-[6-(2-isoquinolin-6-ylethynyl)-5-(1,3,5-trimethylpyrazol-4-yl)-pyridin-2-yl]-2-(methylamino)-propanamide] gave a pIC50 of 6.47.

`CNC(C)C(=O)Nc1ccc(NC(=O)C2CCOCC2)c(C#Cc2ccccc2)n1` (stereo not shown) [Example 246, N-[6-[[2-(methylamino)-propanoyl]amino]-2-(2-phenylethynyl)pyridin-3-yl]-oxane-4-carboxamide] gave a pIC50 of 5.82.

Compound `CNC(C)C(=O)Nc1ccc(-c2cncc(C(=O)O)c2)c(C#Cc2ccccc2)n1` (stereo not shown) [Example 120, 5-[6-[[2-(methylamino)-propanoyl]amino]-2-(2-phenyl-ethynyl)pyridin-3-yl]pyridine-3-carboxylic acid] showed a pIC50 of 6.73.

For `CNC(C)C(=O)Nc1ccc(-c2sc(-c3ccccc3)nc2C)c(C#Cc2ccccc2)n1` (stereo not shown) [Example 136, 2-(methylamino)-N-[5-(4-methyl-2-phenyl-1,3-thiazol-5-yl)-6-(2-phenylethynyl)pyridin-2-yl]-propanamide], the pIC50 is 5.98.

In turn, `CNC(C)C(=O)Nc1ccc(-c2cnc(N3CCCC3)nc2)c(C#Cc2ccc3ccccc3c2)n1` (stereo not shown) [Example 155, 2-(methylamino)-N-[6-(2-naphthalen-2-ylethynyl)-5-(2-pyrrolidin-1-ylpyrimidin-5-yl)-pyridin-2-yl]propanamide] gave a pIC50 of 6.55.

On to `CNC(C)C(=O)Nc1ccc(-c2c(C)ccc3c2cnn3C)c(C#Cc2ccc3ncccc3c2)n1` (stereo not shown) [Example 21, N-[5-(1,5-dimethylindazol-4-yl)-6-(2-quinolin-6-ylethynyl)-pyridin-2-yl]-2-(methyl-amino)propanamide], for which the pIC50 was 6.27.

Turning to `CNC(C)C(=O)Nc1ccc(-c2cccc(C(=O)O)c2OC)c(C#Cc2ccccc2)n1` (stereo not shown) [Example 141], the pIC50 was 6.25.

In turn, `CC(N)C(=O)Nc1cccc(C#Cc2cscn2)n1` (stereo not shown) [Example 238, 2-amino-N-[6-[2-(1,3-thiazol-4-yl)ethynyl]pyridin-2-yl]propanamide] gave a pIC50 of 5.14.

The compound `CNC(C)C(=O)Nc1ccc(-c2cnc(SC)nc2C#N)c(C#Cc2ccc3cnccc3c2)n1` (stereo not shown) [Example 59, N-[5-(4-cyano-2-methylsulfanylpyrimidin-5-yl)-6-(2-isoquinolin-6-ylethynyl)-pyridin-2-yl]-2-(methylamino)-propanamide] gave a pIC50 of 6.04.

The compound `CNC(C)C(=O)Nc1ccc(-c2c(C)nc(N3CCOCC3)nc2C)c(C#Cc2ccc(-c3cccnc3)cc2)n1` (stereo not shown) [Example 86, N-[5-(4,6-dimethyl-2-morpholin-4-ylpyrimidin-5-yl)-6-[2-(4-pyridin-3-ylphenyl)-ethynyl]pyridin-2-yl]-2-(methyl-amino)propanamide] showed a pIC50 of 6.11.

On to `CNC(C)C(=O)Nc1ccc(-c2cccc3ncccc23)c(C#Cc2ccc(C)cc2)n1` (stereo not shown) [Example 143, 2-(methylamino)-N-[6-[2-(4-methylphenyl)ethynyl]-5-quinolin-5-ylpyridin-2-yl]propan-amide], for which the pIC50 is 6.41.

As to `CNC(C)C(=O)Nc1cc(OC)c(-c2cncnc2)c(C#Cc2ccccc2)n1` (stereo not shown) [Example 199, N-[4-methoxy-6-(2-phenyl-ethynyl)-5-pyrimidin-5-ylpyridin-2-yl]-2-(methyl-amino)propanamide], the pIC50 is 6.57.

In the case of `CNC(C)C(=O)Nc1ccc(-c2cncc3ccccc23)c(C#Cc2ccc(OC)cc2)n1` (stereo not shown) [Example 3, N-[5-isoquinolin-4-yl-6-[2-(4-methoxyphenyl)ethynyl]-pyridin-2-yl]-2-(methyl-amino)propanamide], the pIC50 was 5.94.

Consider `CNC(C)C(=O)Nc1ccc(-c2ccc([N+](=O)[O-])nc2)c(C#Cc2ccccc2)n1` (stereo not shown) [Example 181, 2-(methylamino)-N-[5-(6-nitropyridin-3-yl)-6-(2-phenyl-ethynyl)pyridin-2-yl]propanamide], for which the pIC50 was 6.65.
